Measured values taken from patent US20240317727A1 (Duke University, priority 2018, published 2024).

Key:
HCC-2998 = test: NCI60 cell growth and viability: HCC-2998; assay type: cell-based; conditions: HCC-2998, Colon Cancer, two days
SK-MEL-28 = test: NCI60 cell growth and viability: SK-MEL-28; assay type: cell-based; conditions: SK-MEL-28, Melanoma, two days
[1] = system: heat shock induced chaperone (Hsp25 and Hsp70) expression; test: Heat shock induced chaperone expression in MEFs, immunoblotting; assay type: cell-based, mouse; conditions: heat shock 42° C. 30 mins, 6-hour recovery, FIG. 3
Experimental: The MEFs were then subjected to heat shock stress at 42° C. for 30 mins to activate HSF1. After heat shock, the MEFs were incubated at 37° C. for a 6-hour recovery. The whole cell lysates were collected at the end of the experiment, and proteins of interest, including Hsp25, Hsp70, HSF1 and GAPDH (as loading control) were assessed by immunoblotting with the corresponding antibody.

SK-OV-3 = test: NCI60 cell growth and viability: SK-OV-3; assay type: cell-based; conditions: SK-OV-3, Ovarian Cancer, two days
SF-539 = test: NCI60 cell growth and viability: SF-539; assay type: cell-based; conditions: SF-539, CNS Cancer, two days
K-562 = test: NCI60 cell growth and viability: K-562; assay type: cell-based; conditions: K-562, Leukemia, two days
786-0 = test: NCI60 cell growth and viability: 786-0; assay type: cell-based; conditions: 786-0, Renal Cancer, two days
MCF7 = test: NCI60 cell growth and viability: MCF7; assay type: cell-based; conditions: MCF7, Breast Cancer, two days
MDA-MB-231 = test: NCI60 cell growth and viability: MDA-MB-231; assay type: cell-based; conditions: MDA-MB-231, Breast Cancer, two days
OVCAR-3 = test: NCI60 cell growth and viability: OVCAR-3
UACC-62 = test: NCI60 cell growth and viability: UACC-62; assay type: cell-based; conditions: UACC-62, Melanoma, two days
MDA-MB-468 = test: NCI60 cell growth and viability: MDA-MB-468
M14 = test: NCI60 cell growth and viability: M14; assay type: cell-based; conditions: M14, Melanoma, two days
[2] = system: Hsp27, Hsp70, Hsp90 and p23; test: Chaperone protein levels in C4-2 cells, immunoblot; assay type: cell-based, human; conditions: FIG. 4A/4B
UO-31 = test: NCI60 cell growth and viability: UO-31; assay type: cell-based; conditions: UO-31, Renal Cancer, two days
NCI-H460 = assay type: cell-based; conditions: NCI-H460, Non-Small Cell Lung Cancer, two days
MOLT-4 = test: NCI60 cell growth and viability: MOLT-4; assay type: cell-based; conditions: MOLT-4, Leukemia, two days
HSF1 target gene, Hsp70 = test: Hsp70 transcript in mouse liver and heart tissue, qRT-PCR; assay type: in vivo; conditions: mice, 25 mpk three times per week i.p., vs vehicle, relative to GAPDH, FIG. 6B
Experimental: The cells were treated for 96 hours with the indicated concentrations of the compounds of the disclosure and cell viability was measured with the AlamarBlue assay. […]. […] After sacrificing the mice on the last day of the administration, mouse liver and heart tissue was isolated, messenger RNA extracted and the transcript abundance of the HSF1 target gene, Hsp70, was evaluated by qRT-PCR relative to the internal RNA control, GAPDH. The results of the vehicle-treated versus Compound 0017-treated experiments were compared. […]; **=P<0.01 in accordance with one embodiment of the present disclosure.

RXF 393 = test: NCI60 cell growth and viability: RXF 393; assay type: cell-based; conditions: RXF 393, Renal Cancer, two days
SF-268 = test: NCI60 cell growth and viability: SF-268; assay type: cell-based; conditions: SF-268, CNS Cancer, two days
[3] = Homo sapiens, 48 h, read-out: log10 [GI50 (M)] (converted)
[4] = Homo sapiens, 48 h, read-out: log10 [LC50 (M)] (converted)

O=C(Nc1ccc(F)cc1)Nc1ccc(Cl)c([N+](=O)[O-])c1 [Compound 0017, 1-(4-chloro-3-nitrophenyl)-3-(4-fluorophenyl)urea]
log10 [TGI (M)] (HCC-2998): −4.84 log10 M
GI50 (HCC-2998; [3]): 3.72e-06 M
CC50 (HCC-2998; [4]): 4.27e-05 M
GI50 (SK-MEL-28; [3]): 3.8e-06 M
CC50 (SK-MEL-28; [4]): 3.8e-05 M
log10 [TGI (M)] (SK-MEL-28): −4.85 log10 M
heat shock induced chaperone (Hsp25 and Hsp70) expression [1]: dose-dependently inhibited
GI50 (SK-OV-3; [3]): 2.63e-06 M
CC50 (SK-OV-3; [4]): 4.27e-05 M
log10 [TGI (M)] (SK-OV-3): −5.12 log10 M
GI50 (SF-539; [3]): 3.89e-06 M
CC50 (SF-539; [4]): 4.07e-05 M
log10 [TGI (M)] (SF-539): −4.84 log10 M
GI50 (K-562; Homo sapiens, K562, 48 h, read-out: log10 [GI50 (M)] (converted)): 3.24e-06 M
CC50 (K-562; Homo sapiens, K562, 48 h, read-out: log10 [LC50 (M)] (converted)): ≥ 0.0001 M
log10 [TGI (M)] (K-562): −4.00 log10 M
log10 [TGI (M)] (786-0): −4.88 log10 M
GI50 (786-0; [3]): 3.39e-06 M
CC50 (786-0; [4]): 3.8e-05 M
GI50 (MCF7; [3]): 2.63e-06 M
CC50 (MCF7; [4]): 7.08e-05 M
log10 [TGI (M)] (MCF7): −4.92 log10 M
GI50 (MDA-MB-231; [3]): 2.51e-06 M
CC50 (MDA-MB-231; [4]): 3.39e-05 M
log10 [TGI (M)] (MDA-MB-231): −5.19 log10 M
GI50 (OVCAR-3; Homo sapiens, OVCAR-3, 48 h, read-out: log10 [GI50 (M)] (converted)): 3.8e-06 M
CC50 (OVCAR-3; Homo sapiens, OVCAR-3, 48 h, read-out: log10 [LC50 (M)] (converted)): 9.55e-05 M
log10 [TGI (M)] (OVCAR-3; OVCAR-3, Ovarian Cancer, two days): −4.72 log10 M
GI50 (UACC-62; [3]): 3.02e-06 M
CC50 (UACC-62; [4]): 3.63e-05 M
log10 [TGI (M)] (UACC-62): −4.88 log10 M
GI50 (MDA-MB-468; Homo sapiens, MDA-MB-468, 48 h, read-out: log10 [GI50 (M)] (converted)): 2.14e-06 M
CC50 (MDA-MB-468; Homo sapiens, MDA-MB-468, 48 h, read-out: log10 [LC50 (M)] (converted)): 3.55e-05 M
log10 [TGI (M)] (MDA-MB-468; MDA-MB-468, Breast Cancer, two days): −5.12 log10 M
GI50 (M14; [3]): 3.16e-06 M
CC50 (M14; [4]): 3.8e-05 M
log10 [TGI (M)] (M14): −4.91 log10 M
steady-state protein level of Hsp27, Hsp70, Hsp90 and p23 [2]: dose-dependently reduced
GI50 (UO-31; [3]): 2.69e-06 M
CC50 (UO-31; [4]): 3.47e-05 M
log10 [TGI (M)] (UO-31): −4.97 log10 M
GI50 (NCI-H460; [3]): 2.69e-06 M
CC50 (NCI-H460; [4]): 4.57e-05 M
log10 [TGI (M)] (NCI-H460): −4.94 log10 M
GI50 (MOLT-4; [3]): 3.16e-06 M
CC50 (MOLT-4; [4]): ≥ 0.0001 M
log10 [TGI (M)] (MOLT-4): −4.03 log10 M
Hsp70 transcript abundance in liver and heart tissue (HSF1 target gene, Hsp70): inhibits expression of the HSF1 target Hsp70
GI50 (RXF 393; [3]): 1.74e-06 M
CC50 (RXF 393; [4]): 2.82e-05 M
log10 [TGI (M)] (RXF 393): −5.17 log10 M
GI50 (SF-268; [3]): 4.47e-06 M
CC50 (SF-268; [4]): 5.75e-05 M
log10 [TGI (M)] (SF-268): −4.76 log10 M
